In paper PMC5100903, “Tissue Kallikrein Inhibitors Based on the Sunflower Trypsin Inhibitor Scaffold – A Potential Therapeutic Intervention for Skin Diseases” (PLoS ONE, 2016):
Read-outs that look alike come from different tables or passages of the source. Blank lines part the entries; values can stand above or below the compound they belong to. Positions of bridges follow the written chain, without caps; N, C: chain ends. Residues, ends and D or L forms follow the SMILES beside them.

Legend:
KLK5 [1] = molecular target: T1, KLK5 (Homo sapiens, UniProt Q9Y337); assay: biochemical
T1 construct: purchased Novoprotein
T1 sequence (Q9Y337 23-293): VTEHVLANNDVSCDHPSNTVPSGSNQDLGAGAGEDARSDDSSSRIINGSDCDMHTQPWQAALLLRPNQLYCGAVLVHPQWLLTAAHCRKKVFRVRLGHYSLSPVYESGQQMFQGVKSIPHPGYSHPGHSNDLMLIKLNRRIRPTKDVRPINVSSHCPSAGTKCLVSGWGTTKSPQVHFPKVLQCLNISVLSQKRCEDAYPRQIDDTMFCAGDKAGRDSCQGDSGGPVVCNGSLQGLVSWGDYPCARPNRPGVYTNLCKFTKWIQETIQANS
Protocol: (§1) All assays were performed on 96-well microplates and the change in relative fluorescence unit (RFU) was measured by fluorescence spectrometer (BMG FLUOstar OPTIMA). The excitation/emission wavelength was 360/460 nm for the substrate Boc-VPR-AMC (Bachem AG, Hauptstrasse, Switzerland) and MeOSuc-AAPV-AMC (Bachem AG, Hauptstrasse, Switzerland) and 485/520 nm for BODIPY_FL casein (Invitrogen, Carlsbad, US). Stock solution of Boc-VPR-AMC was prepared by dissolving the solid in dimethyl sulfoxide to 100 mM and 10 mM for MeOSuc-AAPV. For BODIPY_FL casein, it was reconstituted to 1 mg/mL in 1xPBS. […] The % of inhibition was calculated by the following equation: % of Inhibition=(1−(Sample RFU − Min RFU)/(Max RFU − Min RFU)) X100
(§2) Each inhibition curves were done in triplicates with a minimum of five concentration points fitted. Fitting of each curve was done using SigmaPlot with the Four Parameter Logistic Function and the IC50 calculated. […] All tested compounds were reconstituted to stock solution in water.
The diluent for all the tested compounds, protein and substrate was 1xPBS. Serially diluted ligands were mixed with diluted recombinant KLK5 (10 nM f/c). The ligand-protein mixtures were incubated on ice for one hour and 19.5 μL was pipetted into a well of a 96-well microplate in triplicates. To start the reaction, 100 μL of the diluted (41.6 μM f/c) Boc-VPR-AMC substrate solution (contained 0.05% v/v Brij35) was added. The plate was incubated at 37°C and the RFU reading was taken 15 minutes after.
There are two previously reported Km values for KLK5 and its substrate Boc-VPR-AMC which allowed the IC50 to Ki conversion. Ki values were calculated according to the Cheng-Prusoff equation Ki= IC50/1+[S]/Km for single site competitive binding.

KLK7 = molecular target: T2, KLK7 (Homo sapiens, UniProt P49862); assay: biochemical
T2 construct: purchased R&D
Protocol: as §1, §2
Recombinant KLK7, KLK8 and KLK14 (>95% purity by SDS-PAGE, endotoxin <0.1 ng/μg, R&D, Minneapolis, U.S.) stocks were diluted with 1xPBS to a concentration of 120 nM. KLK7 and KLK14 were activated by addition of 1 mM f/c CaCl2 (Sigma, Dorset, U.K.), 0.05% v/v Brij35 (Sigma, Dorset, U.K.), 20 nM f/c thermolysin (Sigma, Dorset, U.K.) and incubated at 37°C for 1 hour. The reaction was stopped by addition of ethylenediaminetetraacetic acid (EDTA, 50 mM f/c). KLK8 was activated by addition of 11 nM f/c lysyl endopeptidase (Santa Cruz Biotechnology, Dallas, U.S.) and incubation at 37°C for 0.5 hour. […] The RFU value reached by the thermolysin control was used as the minimum RFU for calculating the % of inhibition for KLK7.
The diluent for all the tested compounds, protein and substrate (except KLK7, which was done with 10 mM Tris pH 7.8) was 1xPBS pH 8.0–8.9. The serially diluted ligands were mixed with diluted bovine trypsin (Sigma, Dorset, U.K.) or activated KLK14, or KLK5, or activated KLK8 or matriptase (catalytic domain only, >90% purity by SDS-PAGE, endotoxin <0.1 ng/μg, R&D, Minneapolis, U.S.) or activated KLK7 or human neutrophil elastase (purified from human plasma, >95% purity by SDS-PAGE, Abcam, Cambridge, U.K.) or porcine pancreatic elastase 1 (Sigma, Dorset, U.K.) or human plasma kallikrein or human plasma plasmin (purified from human plasma, ≥95% purity by SDS-PAGE, BioVision, Milpitas, U.S.). 20μL of the ligand-protein mixture was pipetted to a well of a 96-well microplate in triplicates. The reaction was started by addition of 90–100 μL of the diluted substrate solution (contained 0.05% v/v Brij35) and the plate incubated at 25°C but 37°C for KLK7. RFU reading for each well was taken 6 minutes (trypsin) or 15 minutes (KLK14, KLK5, KLK8, matriptase, human neutrophil elastase, porcine pancreatic elastase 1, plasma kallikrein and plasmin) or 20 hours (KLK7) after substrate addition.

KLK5 [2] = molecular target: T1, KLK5; assay: biochemical; assay type: binding
Protocol: ITC experiments were performed on a MicroCal iTC200 calorimeter (GE Healthcare, Uppsala, Sweden) at 298.15 K with a stirring speed of 750 revolutions per minute. Concentrated (450 μM) ligand solutions were injected into protein (KLK5) solution (20 μM, 280 μL sample volume) in the sample cell. Injection volumes were 2 μL for I10H and Analogue 1 and 1 μL for Analogue 2 and 6 with a spacing of 120 seconds between each injection. Concentrations of ligands were determined by dried weight and they were reconstituted to 10 mM stock in H2O. Concentration of KLK5 was determined by UV280 calculated with an extinction coefficient of 38680 and molecular weight of 32KDa (including weight of glycosylation). The protein solution were buffer exchanged using spin column to 1xPBS (137 mM NaCl, 2.7 mM KCl, 4.3 mM Na2HPO4, 1.47 mM KH2PO4 pH 8.0) or 20 mM MES buffer (with 150 mM NaCl, pH 5.5). Ligand stocks were diluted in those buffers (4.5 μL + 95.5 μL buffer), and then equal v/v % of H2O was added to the protein solution after buffer exchange to ensure matching buffer contents. Heat of dilution was undetectable in control experiments. Data were analyzed using OriginLab version 7.0.

KLK5 [3] = molecular target: T1, KLK5; assay: KLK5 inhibition, fluorogenic Boc-VPR-AMC assay (S1 Table conditions); assay type: biochemical; details: read-out: BOC-VPR-AMC IC50 (N = 3); KLK5 10 nM, Boc-VPR-AMC 41.6 μM, 1xPBS pH 8.0, 15 min on ice preincubation, read at 15 min, 25°C
Protocol: as §1, with “The excitation/emission wavelength was 360/460 nm for the substrate Boc-VPR-AMC (Bachem AG, Hauptstrasse, Switzerland) and MeOSuc-AAPV-AMC (Bachem AG, Hauptstrasse, Switzerland) and 485/520 nm for BODIPY_FL casein (Invitrogen, Carlsbad, US).” left out
as §2
The diluent for all the tested compounds, protein and substrate was 1xPBS pH 8.0. Zinc sulfate and p-aminobenzamidine were purchased from Sigma (Dorset, U.K.). […] The ligand-protein mixtures were incubated on ice for 15 minutes and 20 μL was transferred to a well of a 96-well microplate (ThermoScientific, Waltham, U.S.) in triplicate. […] Change in RFU was measured 15 minutes after substrate addition at 25°C.

[4] = amide bond, 42-membered ring, MESNa (NCL via N-S acyl transfer), then NH4HCO3 oxidation, 0.1 M Na phosphate pH 5.8, 55.0 °C, 2 steps

T2 sequence (P49862 30-253): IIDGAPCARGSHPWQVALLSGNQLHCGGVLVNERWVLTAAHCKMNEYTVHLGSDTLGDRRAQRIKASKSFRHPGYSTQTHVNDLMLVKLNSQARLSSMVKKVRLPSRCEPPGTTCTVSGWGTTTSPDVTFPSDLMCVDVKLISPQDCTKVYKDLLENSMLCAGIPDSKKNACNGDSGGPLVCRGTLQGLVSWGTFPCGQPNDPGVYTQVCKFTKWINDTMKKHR

Compound: CC[C@H](C)[C@@H]1NC(=O)[C@H](CO)NC(=O)[C@H](CCCNC(=N)N)NC(=O)[C@H]([C@@H](C)O)NC(=O)[C@@H]2CSSC[C@H](NC(=O)[C@H](Cc3c[nH]cn3)NC(=O)[C@@H]3CCCN3C(=O)[C@@H]3CCCN3C1=O)C(=O)N[C@@H](Cc1ccccc1)C(=O)N1CCC[C@H]1C(=O)N[C@@H](CC(=O)O)C(=O)NCC(=O)N[C@@H](CCCNC(=N)N)C(=O)N2 [Analogue 1] (cyclo(CFPDGRCTRSIPPH); disulfide 1-7)
IC50 (KLK5 [1]): 0.065 ± 0.01 µM
Ki (KLK5 [1]): 0.06 µM
IC50 (KLK7): 2.29 ± 0.068 µM
Kd (KLK5 [2]): 0.115 µM
Stoichiometry (N) (KLK5 [2]; ITC, 1xPBS pH 8.0, 25°C): 1.03±0.01
ΔH (KLK5 [2]; ITC, 1xPBS pH 8.0, 25°C): 1.216 ± 0.021 kcal/mol
ΔS (KLK5 [2]; ITC, 1xPBS pH 8.0, 25°C): 35.8 cal mol^-1 kelvin^-1
ΔG (KLK5 [2]; ITC, 25°C): -9.457 kcal/mol
Ka (KLK5 [2]; ITC, 25°C (Table S2, unit not given)): 8.7E6±2.7E6

IC50 (KLK5 [3]): 2.94 µM
Compound: O=S(=O)([O-])[O-].[Zn+2] [Zinc Sulfate]

IC50 (KLK5 [3]): 60.5 µM
Compound: N=C(N)c1ccc(N)cc1 [p-Aminobenzamidine]

Compound: GRCTKSIPPHCFPD
ring closure, yield after HPLC ([4]; 0.6 mM): 19%

Compound: GRCTKSIPPHCWPD
ring closure, yield after HPLC ([4]; 0.59 mM): 25%

Compound: GRCTKSIPPHCYPD
ring closure, yield after HPLC ([4]; 0.6 mM): 19%

Compound: GRCTKSKPPHCFPD
ring closure, yield after HPLC ([4]; 0.6 mM): 16%

Compound: GRCTRSIPPHCFPD
ring closure, yield after HPLC ([4]; 0.59 mM): 24%

Compound: GRCTRSIPPHCWPD
ring closure, yield after HPLC ([4]; 0.58 mM): 24%

Compound: NRCTKSIPPHCFPD
ring closure, yield after HPLC ([4]; 0.58 mM): 25%
